Experimental data: ChEMBL document CHEMBL1132555, “Tyrosine kinase inhibitors. 16. 6,5,6-tricyclic benzothieno[3, 2-d]pyrimidines and pyrimido[5,4-b-] and -[4,5-b]ĭndoles as potent inhibitors of the epidermal growth factor receptor tyrosine kinase” (J Med Chem, 1999)
Blank lines part the entries; values can stand above or below the compound they belong to.

Legend:
[1] = biological target: T1, Epidermal growth factor receptor (Homo sapiens, UniProt P00533)
Description: Concentration needed to inhibit the phosphorylation of a 14-residue fragment of phospholipase C-gamma1 by Epidermal growth factor receptor (prepared from human A431 carcinoma cell vesicles by immunoaffinity chromatography)

[2] = biological target: T1, Epidermal growth factor receptor; experiment: Inhibition of Epidermal growth factor receptor autophosphorylation in A431 cells
[3] = Inhibition of Platelet-derived growth factor receptor at 50 uM
[4] = biological target: Fibroblast growth factor receptor (Homo sapiens) (UniProt P22607+P11362+P22455+P21802); experiment: Inhibition of Fibroblast growth factor receptor at 50 uM; type: protein assay
[5] = biological target: Protein kinase C (PKC) (Homo sapiens) (UniProt O94806+P41743+P17252+P05129+Q05655+P05771+Q05513+Q02156+P24723+Q15139+Q04759); experiment: Inhibition of Protein kinase C at 50 uM; type: protein assay
[6] = biological target: Proto-oncogene tyrosine-protein kinase Src (Homo sapiens) (UniProt P12931); experiment: Inhibition of c-Src tyrosine kinase at 50 uM
Proto-oncogene tyrosine-protein kinase Src (Homo sapiens), sequence (P12931 2-536 limits assumed): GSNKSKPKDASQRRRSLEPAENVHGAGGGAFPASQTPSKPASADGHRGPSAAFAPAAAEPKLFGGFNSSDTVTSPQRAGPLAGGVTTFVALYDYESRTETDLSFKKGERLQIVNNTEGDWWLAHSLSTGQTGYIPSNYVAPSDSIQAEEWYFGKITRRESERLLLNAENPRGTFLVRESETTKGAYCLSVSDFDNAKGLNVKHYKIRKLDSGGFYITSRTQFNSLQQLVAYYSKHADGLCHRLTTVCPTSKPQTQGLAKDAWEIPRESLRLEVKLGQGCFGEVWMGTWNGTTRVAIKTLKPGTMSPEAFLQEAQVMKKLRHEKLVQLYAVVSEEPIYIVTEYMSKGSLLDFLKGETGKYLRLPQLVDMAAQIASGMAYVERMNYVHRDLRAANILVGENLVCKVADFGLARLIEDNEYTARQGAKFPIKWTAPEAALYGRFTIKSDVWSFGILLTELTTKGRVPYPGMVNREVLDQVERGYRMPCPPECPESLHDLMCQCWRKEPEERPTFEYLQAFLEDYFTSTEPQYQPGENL

[7] = biological target: Insulin receptor (Homo sapiens) (UniProt P06213); experiment: Inhibition against Insulin receptor kinase at 50 uM
Insulin receptor (Homo sapiens), sequence (P06213 28-758 limits assumed): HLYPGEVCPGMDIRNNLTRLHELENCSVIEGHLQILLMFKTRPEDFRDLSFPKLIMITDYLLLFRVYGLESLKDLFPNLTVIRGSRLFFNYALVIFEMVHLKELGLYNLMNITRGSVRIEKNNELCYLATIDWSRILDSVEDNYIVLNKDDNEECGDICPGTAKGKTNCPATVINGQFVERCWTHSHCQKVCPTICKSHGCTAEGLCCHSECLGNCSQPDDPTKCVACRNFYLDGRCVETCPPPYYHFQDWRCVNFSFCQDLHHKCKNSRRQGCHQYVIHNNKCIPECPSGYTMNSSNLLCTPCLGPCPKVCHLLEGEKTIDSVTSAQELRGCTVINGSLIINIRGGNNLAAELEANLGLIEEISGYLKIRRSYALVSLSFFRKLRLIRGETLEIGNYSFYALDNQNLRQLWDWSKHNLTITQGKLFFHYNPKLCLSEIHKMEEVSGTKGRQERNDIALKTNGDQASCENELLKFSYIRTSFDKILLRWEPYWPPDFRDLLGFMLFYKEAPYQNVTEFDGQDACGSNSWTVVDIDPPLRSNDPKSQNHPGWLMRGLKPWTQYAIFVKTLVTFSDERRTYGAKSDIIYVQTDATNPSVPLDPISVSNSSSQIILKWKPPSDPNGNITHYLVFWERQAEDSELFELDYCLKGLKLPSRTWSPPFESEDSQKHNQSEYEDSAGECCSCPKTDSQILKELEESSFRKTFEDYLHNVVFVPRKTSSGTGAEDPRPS
Insulin receptor (Homo sapiens), sequence (P06213 763-1382 limits assumed): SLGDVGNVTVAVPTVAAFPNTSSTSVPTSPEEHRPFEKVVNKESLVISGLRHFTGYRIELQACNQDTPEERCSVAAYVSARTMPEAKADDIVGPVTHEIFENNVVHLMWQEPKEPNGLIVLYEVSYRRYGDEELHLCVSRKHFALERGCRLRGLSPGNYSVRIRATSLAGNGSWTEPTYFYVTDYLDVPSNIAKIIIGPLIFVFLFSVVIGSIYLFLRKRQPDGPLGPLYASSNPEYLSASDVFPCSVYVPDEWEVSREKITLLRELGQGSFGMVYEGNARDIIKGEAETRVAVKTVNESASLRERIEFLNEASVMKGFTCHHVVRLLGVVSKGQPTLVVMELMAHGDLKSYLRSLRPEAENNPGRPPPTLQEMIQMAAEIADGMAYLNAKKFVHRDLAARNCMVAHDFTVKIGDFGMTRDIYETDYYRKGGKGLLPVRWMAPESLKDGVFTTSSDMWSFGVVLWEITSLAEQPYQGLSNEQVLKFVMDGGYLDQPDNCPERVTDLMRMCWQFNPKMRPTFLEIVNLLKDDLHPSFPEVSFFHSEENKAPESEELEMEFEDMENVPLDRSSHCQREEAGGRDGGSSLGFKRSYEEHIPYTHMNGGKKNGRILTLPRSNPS

[8] = biological target: Proto-oncogene tyrosine-protein kinase Src (Homo sapiens) (UniProt P12931); experiment: Inhibition against c-Src tyrosine kinase at 1.25 uM

T1 sequence (P00533 whole entry): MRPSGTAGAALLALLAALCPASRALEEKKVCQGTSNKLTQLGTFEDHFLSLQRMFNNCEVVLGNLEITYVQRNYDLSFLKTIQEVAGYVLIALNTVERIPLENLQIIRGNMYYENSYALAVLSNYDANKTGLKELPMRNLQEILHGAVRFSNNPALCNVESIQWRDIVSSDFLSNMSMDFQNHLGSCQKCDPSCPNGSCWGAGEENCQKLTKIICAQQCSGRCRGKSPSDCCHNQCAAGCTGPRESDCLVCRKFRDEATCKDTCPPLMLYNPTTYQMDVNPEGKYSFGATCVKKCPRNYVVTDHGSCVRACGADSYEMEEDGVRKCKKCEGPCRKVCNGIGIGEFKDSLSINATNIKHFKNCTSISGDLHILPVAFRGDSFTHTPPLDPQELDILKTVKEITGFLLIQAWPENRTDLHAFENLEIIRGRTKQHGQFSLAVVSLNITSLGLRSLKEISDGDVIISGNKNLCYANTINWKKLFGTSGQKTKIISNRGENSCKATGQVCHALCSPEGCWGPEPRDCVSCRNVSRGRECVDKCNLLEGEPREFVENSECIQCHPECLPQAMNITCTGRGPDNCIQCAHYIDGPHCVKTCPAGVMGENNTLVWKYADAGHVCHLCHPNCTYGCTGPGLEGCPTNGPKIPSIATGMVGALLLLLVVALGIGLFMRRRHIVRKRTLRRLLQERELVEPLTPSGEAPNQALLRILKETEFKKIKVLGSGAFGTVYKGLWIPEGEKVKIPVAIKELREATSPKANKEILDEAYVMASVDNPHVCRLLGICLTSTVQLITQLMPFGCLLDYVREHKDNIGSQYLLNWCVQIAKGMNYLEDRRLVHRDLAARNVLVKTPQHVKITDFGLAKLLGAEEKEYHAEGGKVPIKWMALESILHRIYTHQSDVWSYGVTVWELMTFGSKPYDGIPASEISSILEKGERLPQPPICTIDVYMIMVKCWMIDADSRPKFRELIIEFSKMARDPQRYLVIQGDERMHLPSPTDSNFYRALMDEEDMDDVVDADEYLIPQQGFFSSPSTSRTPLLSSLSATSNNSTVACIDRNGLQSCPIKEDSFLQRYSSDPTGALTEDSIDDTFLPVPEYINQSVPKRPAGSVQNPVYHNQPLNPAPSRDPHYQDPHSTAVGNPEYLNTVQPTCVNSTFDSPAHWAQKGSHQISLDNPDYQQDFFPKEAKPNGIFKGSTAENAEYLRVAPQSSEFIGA

IC50 [1]: > 10000 nM
Compound: CN(C)CCNc1[nH]cnc2nc3ccccc3c1-2

IC50 [1]: 58 nM
Compound: O=[N+]([O-])c1ccc2sc3c(Nc4ccccc4)ncnc3c2c1

IC50 [1]: 158 nM
Compound: O=[N+]([O-])c1cccc2c1sc1c(Nc3cccc(Br)c3)ncnc12

inhibition [3]: 0% | inhibition [4]: 20% | inhibition [5]: 7% | inhibition [6]: 0% | IC50 [1]: 538 nM | inhibition [7]: 13%
Compound: C[C@H](Nc1ncnc2c1sc1ccccc12)c1ccccc1

IC50 [1]: 20 nM
Compound: COc1cccc2sc3c(Nc4cccc(Br)c4)ncnc3c12

inhibition [5]: 0% | inhibition [7]: 0%
Compound: Nc1ccc2sc3c(Nc4cccc(Br)c4)ncnc3c2c1

inhibition [3]: 0% | inhibition [4]: 21% | inhibition [5]: 18% | inhibition [6]: 0% | inhibition [7]: 0%
Compound: Brc1cccc(Nc2ncnc3c2sc2ccccc23)c1

IC50 [1]: 1 nM
Compound: Cc1cccc(Nc2cc(NCCO)ncn2)c1

IC50 [1]: > 10000 nM
Compound: Cc1nc(Nc2cccc(Br)c2)c2c(n1)[nH]c1ccccc12

inhibition [3]: 10% | inhibition [4]: 11% | inhibition [6]: 0% | inhibition [7]: 0%
Compound: c1ccc(CNc2ncnc3c2sc2ccccc23)cc1

IC50 [2]: 493 nM | IC50 [1]: 147 nM
Compound: Nc1nc(Nc2cccc(Br)c2)c2c(n1)[nH]c1ccccc12

IC50 [1]: 460 nM
Compound: O=[N+]([O-])c1ccc2sc3c(Nc4cccc(C(F)(F)F)c4)ncnc3c2c1

IC50 [2]: 85 nM | IC50 [1]: 7.9 nM
Compound: CCNc1cc2sc3c(Nc4cccc(Br)c4)ncnc3c2cc1F

IC50 [1]: 48 nM
Compound: O=[N+]([O-])c1ccc2c(c1)sc1c(Nc3cccc(Br)c3)ncnc12

The remaining lines, values behind:

Compound: CN(C)CCNc1[nH]cnc2c3ccccc3nc1-2
IC50 [1]: > 100000 nM

Compound: Cn1c2ccccc2c2c(Nc3cccc(Br)c3)ncnc21
IC50 [2]: 769 nM | IC50 [1]: 742 nM

Compound: COc1ccc2c(c1)sc1c(Nc3cccc(Br)c3)ncnc12
inhibition [3]: 21% | inhibition [4]: 19% | inhibition [5]: 20% | inhibition [6]: 22% | inhibition [7]: 0%

Compound: c1ccc2c(c1)[nH]c1c(NC3CCCCC3)ncnc12
IC50 [1]: > 100000 nM

Compound: Cc1cccc(Nc2ncnc3c2sc2ccc(N)cc23)c1
inhibition [3]: 17% | inhibition [4]: 24% | inhibition [5]: 44% | inhibition [6]: 47% | IC50 [2]: 98 nM | IC50 [1]: 2.1 nM | inhibition [7]: 14%

Compound: Nc1cccc2c1sc1c(Nc3cccc(Br)c3)ncnc12
IC50 [1]: 2.7 nM

Compound: Brc1cccc(Nc2ncnc3sccc23)c1
IC50 [1]: 35 nM

Compound: COc1cc2sc3c(Nc4cccc(Br)c4)ncnc3c2cc1OC
IC50 [1]: 444 nM

Compound: COc1ccc2[nH]c3ncnc(Nc4cccc(Br)c4)c3c2c1
inhibition [3]: 2% | inhibition [4]: 30% | IC50 [2]: 13 nM | IC50 [1]: 1.2 nM | inhibition [7]: 0% | inhibition [8]: 8%

Compound: Nc1cc2sc3c(Nc4cccc(Br)c4)ncnc3c2cc1F
IC50 [2]: 42 nM | IC50 [1]: 1 nM

Compound: CNc1ccc2sc3c(Nc4cccc(Br)c4)ncnc3c2c1
IC50 [2]: 33 nM | IC50 [1]: 1.1 nM

Compound: Nc1ccc2sc3c(Nc4cccc(C(F)(F)F)c4)ncnc3c2c1
inhibition [3]: 12% | inhibition [4]: 17% | inhibition [5]: 51% | inhibition [6]: 13% | IC50 [1]: 47 nM | inhibition [7]: 0%

Compound: CN(C)c1ccc2sc3c(Nc4cccc(Br)c4)ncnc3c2c1
IC50 [1]: 19.8 nM

Compound: Cc1cccc(Nc2ncnc3c2sc2ccc([N+](=O)[O-])cc23)c1
IC50 [1]: 11 nM

Compound: Nc1ccc2c(c1)sc1c(Nc3cccc(Br)c3)ncnc12
IC50 [1]: 0.47 nM

Compound: Clc1cccc(Nc2ncnc3c2sc2ncccc23)c1
IC50 [1]: > 1000 nM

Compound: C[C@@H](Nc1[nH]cnc2c3ccccc3nc1-2)c1ccccc1
IC50 [1]: > 100000 nM

Compound: COc1cccc2c1sc1c(Nc3cccc(Br)c3)ncnc12
IC50 [1]: 12.6 nM

Compound: Brc1cccc(Nc2ncnc3cc4[nH]ccc4cc23)c1
IC50 [1]: 0.39 nM
